Measured values: PubChem BioAssay (NCI)
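48-hour exposure; five concentrations; linearly interpolated endpoints. TGI: concentration producing complete growth inhibition.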

Assays:
Experiment in all cases: NCI anticancer screen, dose series, 48 h
ACHN renal = test system: ACHN renal
COLO 205 colon = test system: COLO 205 colon
A549 NSCLC = test system: A549 NSCLC
OVCAR-8 ovarian = test system: OVCAR-8 ovarian
EKVX NSCLC = test system: EKVX NSCLC
CCRF-CEM leukemia = test system: CCRF-CEM leukemia
HT29 colon = test system: HT29 colon
SF-295 CNS = test system: SF-295 CNS
T-47D breast = test system: T-47D breast
M14 melanoma = test system: M14 melanoma
MALME-3M melanoma = test system: MALME-3M melanoma
MDA-MB-231 breast = test system: MDA-MB-231 breast
SNB-19 CNS = test system: SNB-19 CNS
NCI-H23 lung = test system: NCI-H23 lung
HOP-92 NSCLC = test system: HOP-92 NSCLC
HL-60(TB) leukemia = test system: HL-60(TB) leukemia
PC-3 prostate = test system: PC-3 prostate
SF-539 CNS = test system: SF-539 CNS
RXF 393 renal = test system: RXF 393 renal
SF-268 CNS = test system: SF-268 CNS
SK-OV-3 ovarian = test system: SK-OV-3 ovarian
NCI/ADR-RES ovarian = test system: NCI/ADR-RES ovarian
UO-31 renal = test system: UO-31 renal
NCI-H460 lung = test system: NCI-H460 lung
HS 578T breast = test system: HS 578T breast
MCF7 breast = test system: MCF7 breast
MDA-MB-435 = test system: MDA-MB-435
K-562 leukemia = test system: K-562 leukemia
TK-10 renal = test system: TK-10 renal
MDA-N = test system: MDA-N
CAKI-1 renal = test system: CAKI-1 renal
NCI-H522 lung = test system: NCI-H522 lung
MOLT-4 leukemia = test system: MOLT-4 leukemia
A498 renal = test system: A498 renal
OVCAR-5 ovarian = test system: OVCAR-5 ovarian
BT-549 breast = test system: BT-549 breast
RPMI-8226 leukemia = test system: RPMI-8226 leukemia
SR leukemia = test system: SR leukemia
OVCAR-3 ovarian = test system: OVCAR-3 ovarian
SK-MEL-2 melanoma = test system: SK-MEL-2 melanoma
SW-620 colon = test system: SW-620 colon
HOP-62 NSCLC = test system: HOP-62 NSCLC
SK-MEL-28 melanoma = test system: SK-MEL-28 melanoma
HCC-2998 colon = test system: HCC-2998 colon
HCT-15 colon = test system: HCT-15 colon
SN12C renal = test system: SN12C renal
HCT-116 colon = test system: HCT-116 colon
UACC-257 melanoma = test system: UACC-257 melanoma
OVCAR-4 ovarian = test system: OVCAR-4 ovarian
KM12 colon = test system: KM12 colon
NCI-H226 lung = test system: NCI-H226 lung
LOX IMVI melanoma = test system: LOX IMVI melanoma
UACC-62 melanoma = test system: UACC-62 melanoma
SK-MEL-5 melanoma = test system: SK-MEL-5 melanoma
DU-145 prostate = test system: DU-145 prostate
IGROV1 ovarian = test system: IGROV1 ovarian
U251 CNS = test system: U251 CNS
SNB-75 CNS = test system: SNB-75 CNS
786-0 renal = test system: 786-0 renal

COc1cc(-c2c(C#N)c(N)c(C#N)c3c2COc2ccccc2-3)cc(OC)c1OC was tested, and the TGI (ACHN renal) was over 100 µM, the TGI (COLO 205 colon) was over 100 µM and the TGI (A549 NSCLC) was over 100 µM. For the same compound, the TGI (OVCAR-8 ovarian) was 97.6 µM, the TGI (EKVX NSCLC) was over 69.4 µM and the TGI (CCRF-CEM leukemia) was over 100 µM. The TGI (HT29 colon) was over 100 µM, the TGI (SF-295 CNS) was 58.5 µM and the TGI (T-47D breast) was over 100 µM. For the same compound, the TGI (M14 melanoma) was over 100 µM, the TGI (MALME-3M melanoma) was 48.8 µM and the TGI (MDA-MB-231 breast) was 40.2 µM. The TGI (SNB-19 CNS) was over 43.5 µM, the TGI (NCI-H23 lung) was over 60.8 µM and the TGI (HOP-92 NSCLC) was 38.6 µM. It also gave a TGI (HL-60(TB) leukemia) of over 100 µM, a TGI (PC-3 prostate) of over 100 µM and a TGI (SF-539 CNS) of 19.9 µM. For the same compound, the TGI (RXF 393 renal) was 34.4 µM, the TGI (SF-268 CNS) was 34 µM and the TGI (SK-OV-3 ovarian) was 32.4 µM. For the same compound, the TGI (NCI/ADR-RES ovarian) was over 100 µM, the TGI (UO-31 renal) was over 69.8 µM and the TGI (NCI-H460 lung) was over 100 µM. It also gave a TGI (HS 578T breast) of 39.7 µM, a TGI (MCF7 breast) of over 100 µM and a TGI (MDA-MB-435) of over 100 µM. The TGI (K-562 leukemia) was over 100 µM, the TGI (TK-10 renal) was 40.3 µM and the TGI (MDA-N) was over 100 µM. The TGI (CAKI-1 renal) was over 100 µM, the TGI (NCI-H522 lung) was over 100 µM and the TGI (MOLT-4 leukemia) was over 100 µM. The TGI (A498 renal) was over 100 µM, the TGI (OVCAR-5 ovarian) was over 100 µM and the TGI (BT-549 breast) was over 75.4 µM. It also gave a TGI (RPMI-8226 leukemia) of over 100 µM, a TGI (SR leukemia) of over 100 µM and a TGI (OVCAR-3 ovarian) of over 83.8 µM. It also gave a TGI (SK-MEL-2 melanoma) of over 77.6 µM, a TGI (SW-620 colon) of over 100 µM and a TGI (HOP-62 NSCLC) of 19 µM. For the same compound, the TGI (SK-MEL-28 melanoma) was over 100 µM, the TGI (HCC-2998 colon) was over 100 µM and the TGI (HCT-15 colon) was over 100 µM. The TGI (SN12C renal) was over 84.4 µM, the TGI (HCT-116 colon) was over 100 µM and the TGI (UACC-257 melanoma) was over 100 µM. For the same compound, the TGI (OVCAR-4 ovarian) was over 64.8 µM, the TGI (KM12 colon) was over 100 µM and the TGI (NCI-H226 lung) was 59.4 µM. For the same compound, the TGI (LOX IMVI melanoma) was over 100 µM, the TGI (UACC-62 melanoma) was over 100 µM and the TGI (SK-MEL-5 melanoma) was over 100 µM. The TGI (DU-145 prostate) was over 100 µM, the TGI (IGROV1 ovarian) was over 79.6 µM and the TGI (U251 CNS) was 34.4 µM.
Work on C=CCOC1=C(OCC=C)C(C2COC(C)(C)O2)OC1=O (stereo unspecified) yielded a TGI (ACHN renal) of over 100 µM, a TGI (COLO 205 colon) of over 100 µM and a TGI (A549 NSCLC) of over 100 µM. For the same compound, the TGI (OVCAR-8 ovarian) was over 100 µM, the TGI (EKVX NSCLC) was over 100 µM and the TGI (CCRF-CEM leukemia) was over 100 µM. For the same compound, the TGI (HT29 colon) was over 100 µM, the TGI (SF-295 CNS) was over 100 µM and the TGI (T-47D breast) was over 100 µM. It also gave a TGI (M14 melanoma) of over 100 µM, a TGI (MALME-3M melanoma) of over 100 µM and a TGI (MDA-MB-231 breast) of over 100 µM. The TGI (SNB-19 CNS) was over 100 µM, the TGI (NCI-H23 lung) was over 100 µM and the TGI (HOP-92 NSCLC) was 83.3 µM. The TGI (HL-60(TB) leukemia) was over 100 µM, the TGI (PC-3 prostate) was over 100 µM and the TGI (SF-539 CNS) was over 100 µM. The TGI (RXF 393 renal) was over 100 µM, the TGI (SF-268 CNS) was over 100 µM and the TGI (SK-OV-3 ovarian) was over 100 µM. For the same compound, the TGI (NCI/ADR-RES ovarian) was over 100 µM, the TGI (UO-31 renal) was over 100 µM and the TGI (NCI-H460 lung) was over 100 µM. For the same compound, the TGI (HS 578T breast) was over 100 µM, the TGI (MCF7 breast) was over 100 µM and the TGI (MDA-MB-435) was over 100 µM. The TGI (K-562 leukemia) was over 100 µM, the TGI (TK-10 renal) was over 100 µM and the TGI (SNB-75 CNS) was over 100 µM. The TGI (MDA-N) was over 100 µM, the TGI (CAKI-1 renal) was 34.9 µM and the TGI (NCI-H522 lung) was 45.2 µM. For the same compound, the TGI (MOLT-4 leukemia) was over 100 µM, the TGI (A498 renal) was over 100 µM and the TGI (OVCAR-5 ovarian) was over 100 µM. The TGI (BT-549 breast) was over 100 µM, the TGI (RPMI-8226 leukemia) was over 100 µM and the TGI (SR leukemia) was over 100 µM. It also gave a TGI (OVCAR-3 ovarian) of over 100 µM, a TGI (SK-MEL-2 melanoma) of over 100 µM and a TGI (SW-620 colon) of over 100 µM. The TGI (HOP-62 NSCLC) was over 100 µM, the TGI (SK-MEL-28 melanoma) was over 100 µM and the TGI (786-0 renal) was over 100 µM. The TGI (HCC-2998 colon) was over 100 µM, the TGI (HCT-15 colon) was over 100 µM and the TGI (SN12C renal) was over 100 µM. For the same compound, the TGI (HCT-116 colon) was over 100 µM, the TGI (UACC-257 melanoma) was over 100 µM and the TGI (OVCAR-4 ovarian) was over 100 µM. For the same compound, the TGI (KM12 colon) was over 100 µM, the TGI (NCI-H226 lung) was over 100 µM and the TGI (LOX IMVI melanoma) was over 100 µM. It also gave a TGI (UACC-62 melanoma) of over 100 µM, a TGI (SK-MEL-5 melanoma) of over 100 µM and a TGI (DU-145 prostate) of over 100 µM. It also gave a TGI (IGROV1 ovarian) of over 100 µM and a TGI (U251 CNS) of over 100 µM.
